Test results from ChEMBL document CHEMBL1137081, “Conformationally constrained analogues of diacylglycerol. 20. The search for an elusive binding site on protein kinase C through relocation of the carbonyl pharmacophore along the sn-1 side chain of 1,2-diacylglycerol lactones” (J Med Chem, 2004).

target: Protein kinase C alpha type (Homo sapiens, UniProt P17252); experiment: Displacement of [20-3H]-phorbol 12,13-dibutyrate (PDBU) from protein kinase C alpha with phosphatidylserine

| Compound | Ki [µM] |
| --- | --- |
| CCCCCCCC(=O)OCCCC1(CO)C/C(=C/CC(C(C)C)C(C)C)C(=O)O1 (stereo unspecified) | 0.736 |
| CCCCCCCCCOC(=O)CC1(CO)C/C(=C\CC(C(C)C)C(C)C)C(=O)O1 (stereo unspecified) | 0.0622 |
| CCCCCCCC(=O)OCCCC1(CO)CC(=CCC(C(C)C)C(C)C)C(=O)O1 (stereo unspecified) | 1.43 |
| CCCCCCCCCOC(=O)CC1(CO)C/C(=C/CC(C(C)C)C(C)C)C(=O)O1 (stereo unspecified) | 0.0557 |
| CCCCCCCCC(=O)OCCC1(CO)C/C(=C\CC(C(C)C)C(C)C)C(=O)O1 (stereo unspecified) | 0.459 |
| CCCCCCCCC(=O)OCCC1(CO)C/C(=C/CC(C(C)C)C(C)C)C(=O)O1 (stereo unspecified) | 0.208 |
